Reference: patent publication US8309586B2, “Glucokinase activators and pharmaceutical compositions containing the same as an active ingredient” (LG Life Sciences Ltd., priority 2007, dated 2012)

Tests used:
male C57BL/6 mice = experiment: Blood glucose lowering abilities after single oral administration in male C57BL/6 mouse; type: in vivo; settings: 30 mg/kg single oral dose, fed ad libitum, medium: distilled water
Protocol: The glucokinase activators according to the present invention were orally administered in a single dose in the amount of 30 mg/kg body weight to male C57BL/6 mice for 24 h. The media were selected depending on their solubilities from distilled water, pH 1.2 HCl buffer solution, 0.5% methyl cellulose distilled water solution, 10% Gelucire/pH 1.2 HCl buffer solution (1/1). The glucokinase activators were dissolved in the selected media to the medium volume of 0.1 ml/10 g body weight on the basis of the body weight measured on the day of experiment.
Blood glucose was measured by cutting the tail vein before 1 h (time=−1) from the measurement of blood glucose, collecting blood from the tail vein at immediately before the administration of the glucokinase activator (time=0), and at 1, 2, 4, 8, 12, 24 h after administration, loading on the automatic glucometer (Accu-Chek® Active, Roche, USA), dropping 5 μl of the blood to a yellow pad of the Accu-Chek® Active glucose strip, and recording the measured value.
Mice involved in the experiment were divided into groups (n=10, in the case of media group n=4) on one day before the experiment so that each group has uniform average and standard deviation for blood glucose after 4 hour fasting. Mice were fed ad libitum.
The blood glucose lowering abilities in % of the representative compounds with respect to the 100% of media control were shown in the following Table 2.

[1] = test system: Glucokinase known as hexokinase IV (human GK isoform 1, pancreas form and human GK isoform 2, liver form); experiment: Glucokinase enzymatic activity assay (G6PDH-coupled, NADH absorbance at 340 nm); type: biochemical; settings: 5 mM glucose, 1 mM ATP, 37 nM GK, 10 min at room temperature
Summary of the method: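 His-tagged human GK isoform 1 (pancreas) or 2 (liver), E. coli-expressed and Ni-purified, 37 nM, with 5 mM glucose, 1 mM ATP, 1 mM NAD and G6PDH in 25 mM Hepes/KCl, 2 mM MgCl2, 1 mM DTT. Ran 10 min at room temperature, read as NADH at 340 nm. AC1.5 is the compound concentration giving 1.5-fold activity.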

O=C(O)C[C@@H]1CSC(c2cc3cc(Br)cc(NC4CCCC4)c3[nH]2)=N1 [Example 33, [(R)-2-(5-bromo-7-cyclopentylamino-1H-indol-2-yl)-4,5-dihydro-thiazol-4-yl]acetic acid]
Hypoglycemic ability (% medium): blood glucose AUC for 24 h with respect to 100% of media control (male C57BL/6 mice): 81%

O=C(O)C[C@@H]1CSC(c2cc3cc(F)cc(NC4CCCC4)c3[nH]2)=N1 [Example 37, [(R)-2-(7-cyclopentylamino-5-fluoro-1H-indol-2-yl)-4,5-dihydro-thiazol-4-yl]acetic acid]
Hypoglycemic ability (% medium): blood glucose AUC for 24 h with respect to 100% of media control (male C57BL/6 mice): 67%

COc1cc(NC2CCOCC2)c2[nH]c(C3=N[C@H](CCN4CCN(C(=O)CO)CC4)CS3)cc2c1 [Example 147, 2-hydroxy-1-[4-(2-{(R)-2-[5-methoxy-7-(tetrahydro-pyran-4-ylamino)-1H-indol-2-yl]-4,5-dihydro-thiazol-4-yl}-ethyl)-piperazin-1-yl]ethanone]
AC1.5 (the compound concentration at which the enzymatic activity is increased by 1.5 times) [1]: 52 nM

CCOC(=O)CC[C@@H]1CSC(c2cc3cc(Cl)cc(NC4CCCC4)c3[nH]2)=N1 [Example 148, 3-[(R)-2-(5-chloro-7-cyclopentylamino-1H-indol-2-yl)-4,5-dihydro-thiazol-4-yl]propionic acid ethyl ester]
AC1.5 (the compound concentration at which the enzymatic activity is increased by 1.5 times) [1]: 12 nM

O=C(O)CC[C@@H]1CSC(c2cc3cc(Cl)cc(NC4CCCC4)c3[nH]2)=N1 [Example 149, 3-[(R)-2-(5-chloro-7-cyclopentylamino-1H-indol-2-yl)-4,5-dihydro-thiazol-4-yl]-propionic acid]
AC1.5 (the compound concentration at which the enzymatic activity is increased by 1.5 times) [1]: 12 nM

OCCC[C@@H]1CSC(c2cc3cc(Cl)cc(NC4CCCC4)c3[nH]2)=N1 [Example 150, 3-[(R)-2-(5-chloro-7-cyclopentylamino-1H-indol-2-yl)-4,5-dihydro-thiazol-4-yl]-propan-1-ol]
AC1.5 (the compound concentration at which the enzymatic activity is increased by 1.5 times) [1]: 10 nM

O=C(O)CC[C@@H]1CSC(c2cc3cc(Cl)cc(NC4CCOCC4)c3[nH]2)=N1 [Example 151, 3-{(R)-2-[5-chloro-7-(tetrahydro-pyran-4-ylamino)-1H-indol-2-yl]-4,5-dihydro-thiazol-4-yl}-propionic acid]
AC1.5 (the compound concentration at which the enzymatic activity is increased by 1.5 times) [1]: 14 nM

OCCC[C@@H]1CSC(c2cc3cc(Cl)cc(NC4CCOCC4)c3[nH]2)=N1 [Example 152, 3-{(R)-2-[5-chloro-7-(tetrahydro-pyran-4-ylamino)-1H-indol-2-yl]-4,5-dihydro-thiazol-4-yl}-propan-1-ol]
AC1.5 (the compound concentration at which the enzymatic activity is increased by 1.5 times) [1]: 14 nM

O=C(CC[C@@H]1CSC(c2cc3cc(Cl)cc(NC4CCCC4)c3[nH]2)=N1)NCCN1CCOCC1 [Example 153, 3-[(R)-2-(5-chloro-7-cyclopentylamino-1H-indol-2-yl)-4,5-dihydro-thiazol-4-yl]-N-(2-morpholin-4-yl-ethyl)-propionamide]
AC1.5 (the compound concentration at which the enzymatic activity is increased by 1.5 times) [1]: 12 nM

CN1CCN(C(=O)CC[C@@H]2CSC(c3cc4cc(Cl)cc(NC5CCCC5)c4[nH]3)=N2)CC1 [Example 154, 3-[(R)-2-(5-chloro-7-cyclopentylamino-1H-indol-2-yl)-4,5-dihydro-thiazol-4-yl]-1-(4-methyl-piperazin-1-yl)-propan-1-one]
AC1.5 (the compound concentration at which the enzymatic activity is increased by 1.5 times) [1]: 14 nM

CC(=O)N1CCN(CCC[C@@H]2CSC(c3cc4cc(Cl)cc(NC5CCCC5)c4[nH]3)=N2)CC1 [Example 155, 1-(4-{3-[(R)-2-(5-chloro-7-cyclopentylamino-1H-indol-2-yl)-4,5-dihydro-thiazol-4-yl]-propyl}-piperazin-1-yl)-ethanone]
AC1.5 (the compound concentration at which the enzymatic activity is increased by 1.5 times) [1]: 12 nM

Clc1cc(NC2CCCC2)c2[nH]c(C3=N[C@H](CCCN4CCOCC4)CS3)cc2c1 [Example 156, {5-chloro-2-[(R)-4-(3-morpholin-4-yl-propyl)-4,5-dihydro-thiazol-2-yl]-1H-indol-7-yl}-cyclopentyl-amine]
AC1.5 (the compound concentration at which the enzymatic activity is increased by 1.5 times) [1]: 22 nM

CCOC(=O)CC[C@@H]1CSC(c2cc3cc(C)cc(NC4CCCC4)c3[nH]2)=N1 [Example 157, 3-[(R)-2-(7-cyclopentylamino-5-methyl-1H-indol-2-yl)-4,5-dihydro-thiazol-4-yl]-propionic acid ethyl ester]
AC1.5 (the compound concentration at which the enzymatic activity is increased by 1.5 times) [1]: 24 nM

CCOC(=O)CC[C@@H]1CSC(c2cc3cc(F)cc(NC4CCCC4)c3[nH]2)=N1 [Example 160, 3-[(R)-2-(7-cyclopentylamino-5-fluoro-1H-indol-2-yl)-4,5-dihydro-thiazol-4-yl]-propionic acid ethyl ester]
AC1.5 (the compound concentration at which the enzymatic activity is increased by 1.5 times) [1]: 12 nM

O=C(O)CC[C@@H]1CSC(c2cc3cc(F)cc(NC4CCCC4)c3[nH]2)=N1 [Example 161, 3-[(R)-2-(7-cyclopentylamino-5-fluoro-1H-indol-2-yl)-4,5-dihydro-thiazol-4-yl]-propionic acid]
AC1.5 (the compound concentration at which the enzymatic activity is increased by 1.5 times) [1]: 10 nM

CCOC(=O)CC[C@@H]1CSC(c2cc3cc(Br)cc(NC4CCCC4)c3[nH]2)=N1 [Example 162, 3-[(R)-2-(5-bromo-7-cyclopentylamino-1H-indol-2-yl)-4,5-dihydro-thiazol-4-yl]-propionic acid ethyl ester]
AC1.5 (the compound concentration at which the enzymatic activity is increased by 1.5 times) [1]: 21 nM

O=C(O)CC[C@@H]1CSC(c2cc3cc(Br)cc(NC4CCCC4)c3[nH]2)=N1 [Example 163, 3-[(R)-2-(5-bromo-7-cyclopentylamino-1H-indol-2-yl)-4,5-dihydro-thiazol-4-yl]-propionic acid]
AC1.5 (the compound concentration at which the enzymatic activity is increased by 1.5 times) [1]: 5 nM

COc1cc(NC2CCCC2)c2[nH]c(C3=N[C@H](CCC(=O)O)CS3)cc2c1 [Example 165, 3-[(R)-2-(7-cyclopentylamino-5-methoxy-1H-indol-2-yl)-4,5-dihydro-thiazol-4-yl]-propionic acid]
AC1.5 (the compound concentration at which the enzymatic activity is increased by 1.5 times) [1]: 12 nM

CCOC(=O)CC[C@@H]1CSC(c2cc3cc(OCC)cc(NC4CCCC4)c3[nH]2)=N1 [Example 166, 3-[(R)-2-(7-cyclopentylamino-5-ethoxy-1H-indol-2-yl)-4,5-dihydro-thiazol-4-yl]-propionic acid ethyl ester]
AC1.5 (the compound concentration at which the enzymatic activity is increased by 1.5 times) [1]: 43 nM

CCOC(=O)CC[C@@H]1CSC(c2cc3cc(OC(F)(F)F)cc(NC4CCCC4)c3[nH]2)=N1 [Example 168, 3-[(R)-2-(7-cyclopentylamino-5-trifluoromethoxy-1H-indol-2-yl)-4,5-dihydro-thiazol-4-yl]-propionic acid ethyl ester]
AC1.5 (the compound concentration at which the enzymatic activity is increased by 1.5 times) [1]: 15 nM

O=C(O)CC[C@@H]1CSC(c2cc3cc(OC(F)(F)F)cc(NC4CCCC4)c3[nH]2)=N1 [Example 169, 3-[(R)-2-(7-cyclopentylamino-5-trifluoromethoxy-1H-indol-2-yl)-4,5-dihydro-thiazol-4-yl]-propionic acid]
AC1.5 (the compound concentration at which the enzymatic activity is increased by 1.5 times) [1]: 9 nM

CCOC(=O)COC[C@@H]1CSC(c2cc3cc(F)cc(NC4CCCC4)c3[nH]2)=N1 [Example 170, [(R)-2-(7-cyclopentylamino-5-fluoro-1H-indol-2-yl)-4,5-dihydro-thiazol-4-ylmethoxy]-acetic acid ethyl ester]
AC1.5 (the compound concentration at which the enzymatic activity is increased by 1.5 times) [1]: 12 nM

O=C(O)COC[C@@H]1CSC(c2cc3cc(F)cc(NC4CCCC4)c3[nH]2)=N1 [Example 171, [(R)-2-(7-cyclopentylamino-5-fluoro-1H-indol-2-yl)-4,5-dihydro-thiazol-4-ylmethoxy]-acetic acid]
AC1.5 (the compound concentration at which the enzymatic activity is increased by 1.5 times) [1]: 23 nM

c1cc(NC2CCCC2)c2[nH]c(C3=N[C@H](Cc4nc(N5CCCCC5)no4)CS3)cc2c1 [Example 173, cyclopentyl-{2-[(R)-4-(3-piperidin-1-yl-[1,2,4]oxadiazol-5-ylmethyl)-4,5-dihydro-thiazol-2-yl]-1H-indol-7-yl}-amine]
AC1.5 (the compound concentration at which the enzymatic activity is increased by 1.5 times) [1]: 114 nM

CC(=O)N1CCN(CC[C@@H]2CSC(c3cc4cccc(Oc5ccccc5)c4[nH]3)=N2)CC1 [Example 175, 1-(4-{2-[(R)-2-(7-phenoxy-1H-indol-2-yl)-4,5-dihydro-thiazol-4-yl]-ethyl}-piperazin-1-yl)-ethanone]
AC1.5 (the compound concentration at which the enzymatic activity is increased by 1.5 times) [1]: 71 nM

c1ccc(Oc2cccc3cc(C4=N[C@H](CCN5CCOCC5)CS4)[nH]c23)cc1 [Example 176, 2-[(R)-4-(2-morpholin-4-yl-ethyl)-4,5-dihydro-thiazol-2-yl]-7-phenoxy-1H-indole]
AC1.5 (the compound concentration at which the enzymatic activity is increased by 1.5 times) [1]: 178 nM

CN(C)CC[C@@H]1CSC(c2cc3cccc(Oc4ccccc4)c3[nH]2)=N1 [Example 178, dimethyl-{2-[(R)-2-(7-phenoxy-1H-indol-2-yl)-4,5-dihydro-thiazol-4-yl]ethyl}-amine]
AC1.5 (the compound concentration at which the enzymatic activity is increased by 1.5 times) [1]: 21 nM
